Laboratory results from PubChem BioAssay (NCI).
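Cells were grown in 96-well plates and exposed to each compound for 48 hours at five concentrations; endpoints were interpolated linearly between bracketing concentrations, or set to the highest concentration if not reached. Abbreviation: GI50, concentration required for 50% inhibition of growth. TGI is the concentration that stops growth completely.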

How the values were obtained:
Experiment in all cases: growth of human tumour cells (NCI), 48 h; in the data active = GI50 below about 0.43 µM; inactive = the rest
NCI-H226 lung = tested on: NCI-H226 lung
T-47D breast = tested on: T-47D breast
SK-MEL-2 melanoma = tested on: SK-MEL-2 melanoma
HCT-116 colon = tested on: HCT-116 colon
SF-295 CNS = tested on: SF-295 CNS
SF-539 CNS = tested on: SF-539 CNS
RXF 393 renal = tested on: RXF 393 renal
U251 CNS = tested on: U251 CNS
NCI-H460 lung = tested on: NCI-H460 lung
SR leukemia = tested on: SR leukemia
OVCAR-3 ovarian = tested on: OVCAR-3 ovarian
OVCAR-5 ovarian = tested on: OVCAR-5 ovarian
K-562 leukemia = tested on: K-562 leukemia
M14 melanoma = tested on: M14 melanoma
UACC-62 melanoma = tested on: UACC-62 melanoma
SNB-75 CNS = tested on: SNB-75 CNS
UO-31 renal = tested on: UO-31 renal
SK-OV-3 ovarian = tested on: SK-OV-3 ovarian
MALME-3M melanoma = tested on: MALME-3M melanoma
SN12C renal = tested on: SN12C renal
HT29 colon = tested on: HT29 colon
A549 NSCLC = tested on: A549 NSCLC
CCRF-CEM leukemia = tested on: CCRF-CEM leukemia
NCI-H23 lung = tested on: NCI-H23 lung
786-0 renal = tested on: 786-0 renal
HOP-62 NSCLC = tested on: HOP-62 NSCLC
ACHN renal = tested on: ACHN renal
MCF7 breast = tested on: MCF7 breast
A498 renal = tested on: A498 renal
SW-620 colon = tested on: SW-620 colon
MOLT-4 leukemia = tested on: MOLT-4 leukemia
OVCAR-8 ovarian = tested on: OVCAR-8 ovarian
NCI/ADR-RES ovarian = tested on: NCI/ADR-RES ovarian
PC-3 prostate = tested on: PC-3 prostate
RPMI-8226 leukemia = tested on: RPMI-8226 leukemia
HS 578T breast = tested on: HS 578T breast
DU-145 prostate = tested on: DU-145 prostate
CAKI-1 renal = tested on: CAKI-1 renal
HCC-2998 colon = tested on: HCC-2998 colon
EKVX NSCLC = tested on: EKVX NSCLC
UACC-257 melanoma = tested on: UACC-257 melanoma
NCI-H522 lung = tested on: NCI-H522 lung
TK-10 renal = tested on: TK-10 renal
HL-60(TB) leukemia = tested on: HL-60(TB) leukemia
BT-549 breast = tested on: BT-549 breast
LOX IMVI melanoma = tested on: LOX IMVI melanoma
SK-MEL-5 melanoma = tested on: SK-MEL-5 melanoma
SNB-19 CNS = tested on: SNB-19 CNS
MDA-MB-435 = tested on: MDA-MB-435
SK-MEL-28 melanoma = tested on: SK-MEL-28 melanoma
IGROV1 ovarian = tested on: IGROV1 ovarian
COLO 205 colon = tested on: COLO 205 colon
HCT-15 colon = tested on: HCT-15 colon
HOP-92 NSCLC = tested on: HOP-92 NSCLC
MDA-MB-231 breast = tested on: MDA-MB-231 breast

CC[C@@]12C=CCN3CC[C@]4(c5cc(NC(=O)COc6cc(OCC(=O)Nc7cc8c(cc7OC)N(C)[C@H]7[C@@](O)(C(=O)OC)[C@H](OC(C)=O)[C@]9(CC)C=CCN%10CC[C@]87[C@@H]%109)cc7oc(-c8ccccc8)cc(=O)c67)c(OC)cc5N(C)[C@@H]4[C@](O)(C(=O)OC)[C@H]1OC(C)=O)[C@H]32
28.7 µM: TGI (M14 melanoma)
80.4 µM: TGI (HOP-92 NSCLC)
7.15 µM: TGI (NCI-H460 lung)
inactive: GI50 (NCI-H226 lung) 4.34 µM | GI50 (T-47D breast) 57.5 µM | GI50 (SK-MEL-2 melanoma) 43.5 µM | GI50 (HCT-116 colon) 1.79 µM | GI50 (SF-295 CNS) 3.05 µM | GI50 (SF-539 CNS) 4.62 µM | GI50 (RXF 393 renal) 1.58 µM | GI50 (U251 CNS) 3.29 µM | GI50 (NCI-H460 lung) 2.55 µM | GI50 (SR leukemia) 2.06 µM | GI50 (OVCAR-3 ovarian) 2.58 µM | GI50 (OVCAR-5 ovarian) 3.76 µM | GI50 (K-562 leukemia) 3.86 µM | GI50 (M14 melanoma) 6.06 µM | GI50 (UACC-62 melanoma) 20.1 µM | GI50 (SNB-75 CNS) 3.41 µM | GI50 (UO-31 renal) > 100 µM | GI50 (SK-OV-3 ovarian) 6.49 µM | GI50 (MALME-3M melanoma) > 100 µM | GI50 (SN12C renal) 7.27 µM | GI50 (HT29 colon) 3.42 µM | GI50 (A549 NSCLC) 7.14 µM | GI50 (CCRF-CEM leukemia) 3.51 µM | GI50 (NCI-H23 lung) 2.15 µM | GI50 (786-0 renal) 3.58 µM | GI50 (HOP-62 NSCLC) 3.08 µM | GI50 (ACHN renal) > 100 µM | GI50 (MCF7 breast) 3.25 µM | GI50 (A498 renal) 7.6 µM | GI50 (SW-620 colon) 3.89 µM | GI50 (MOLT-4 leukemia) 2.79 µM | GI50 (OVCAR-8 ovarian) 2.87 µM | GI50 (NCI/ADR-RES ovarian) > 100 µM | GI50 (PC-3 prostate) 2.91 µM | GI50 (RPMI-8226 leukemia) 3.2 µM | GI50 (HS 578T breast) 3.63 µM | GI50 (DU-145 prostate) 4.46 µM | GI50 (CAKI-1 renal) 4.52 µM | GI50 (HCC-2998 colon) 1.89 µM | GI50 (EKVX NSCLC) 3.28 µM | GI50 (UACC-257 melanoma) > 100 µM | GI50 (NCI-H522 lung) 2.15 µM | GI50 (TK-10 renal) 12.3 µM | GI50 (HL-60(TB) leukemia) 20.4 µM | GI50 (BT-549 breast) 3.7 µM | GI50 (LOX IMVI melanoma) 2.63 µM | GI50 (SK-MEL-5 melanoma) 36.9 µM | GI50 (SNB-19 CNS) 5.71 µM | GI50 (MDA-MB-435) 17.7 µM | GI50 (SK-MEL-28 melanoma) > 100 µM | GI50 (IGROV1 ovarian) 1.32 µM | GI50 (COLO 205 colon) 3.88 µM | GI50 (HCT-15 colon) 1.7 µM | GI50 (HOP-92 NSCLC) 7.07 µM | GI50 (MDA-MB-231 breast) 2.68 µM
27.3 µM: TGI (COLO 205 colon)
48.2 µM: TGI (OVCAR-5 ovarian)
18 µM: TGI (NCI-H226 lung)
9.08 µM: TGI (MDA-MB-231 breast)
9.72 µM: TGI (OVCAR-3 ovarian)
61.7 µM: TGI (TK-10 renal)
26.2 µM: TGI (SW-620 colon)
3.63 µM: TGI (IGROV1 ovarian)
11.9 µM: TGI (SF-295 CNS)
3.99 µM: TGI (HCC-2998 colon)
14.9 µM: TGI (786-0 renal)
22.3 µM: TGI (A498 renal)
64.6 µM: TGI (UACC-62 melanoma)
21.7 µM: TGI (MCF7 breast)
10.1 µM: TGI (LOX IMVI melanoma)
> 100 µM: TGI (T-47D breast) | TGI (SK-MEL-2 melanoma) | TGI (SF-539 CNS) | TGI (U251 CNS) | TGI (SR leukemia) | TGI (K-562 leukemia) | TGI (SNB-75 CNS) | TGI (UO-31 renal) | TGI (MALME-3M melanoma) | TGI (SN12C renal) | TGI (HT29 colon) | TGI (A549 NSCLC) | TGI (CCRF-CEM leukemia) | TGI (HOP-62 NSCLC) | TGI (ACHN renal) | TGI (MOLT-4 leukemia) | TGI (OVCAR-8 ovarian) | TGI (NCI/ADR-RES ovarian) | TGI (PC-3 prostate) | TGI (RPMI-8226 leukemia) | TGI (HS 578T breast) | TGI (DU-145 prostate) | TGI (CAKI-1 renal) | TGI (EKVX NSCLC) | TGI (UACC-257 melanoma) | TGI (HL-60(TB) leukemia) | TGI (BT-549 breast) | TGI (SK-MEL-5 melanoma) | TGI (SNB-19 CNS) | TGI (MDA-MB-435) | TGI (SK-MEL-28 melanoma)
6.14 µM: TGI (HCT-116 colon)
3.28 µM: TGI (RXF 393 renal)
19.7 µM: TGI (SK-OV-3 ovarian)
6.03 µM: TGI (NCI-H522 lung)
6.58 µM: TGI (NCI-H23 lung)
12.1 µM: TGI (HCT-15 colon)
